Key:
Assay type in all cases: cell-based
hGPR17L-G354V [1] = biological target: T1, hGPR17L-G354V (Homo sapiens, UniProt Q13304, G354V); experiment: GloSensor cAMP assay, inhibition of forskolin-stimulated cAMP
T1 construct: expressed in transfected cells; host or cells: HEK293 (ATCC CRL-1573)
Procedure: (§1) HEK293 cells were seeded at 20,000 cells/well into white, opaque 96-well plates. The next day, cells were transiently cotransfected with pGloSensor-cAMP-22F and pcDNA3-HA-hGPR17L or pcDNA3-HA-hGPR17L-variants using lipofectamine 3000. Twenty-four hours posttransfection, growth medium and transfection mix were aspirated and replaced with 100 μl/well equilibration medium (2% Promega GloSensor cAMP reagent [E1291; Promega Corporation] in CO2-independent medium) and incubated at room temperature for 2 h. Baseline luminescence was read on a Molecular Devices SpectraMax iD5 plate reader (Molecular Devices) at ambient room temperature for 8 min. Subsequently, 10 μl/well MDL29,951 diluted in assay buffer (HBSS, 20 mM HEPES, pH 7.2) was added and luminescence was read for 10 min. Finally, 10 μl/well forskolin (1099; Tocris Bioscience) diluted in assay buffer was added and luminescence was measured for 20–30 min. The average luminescence value for the 14–20 min time points for each well was normalized to their average baseline luminescence value and expressed as a percentage of the forskolin-stimulated response within each transfection condition.

hGPR17L-V96M [2] = biological target: T2, hGPR17L-V96M (Homo sapiens, UniProt Q13304, V96M); experiment: as above
T2 construct: expressed in transfected cells; host or cells: HEK293 (ATCC CRL-1573), transient transfection
T2 sequence (Q13304 whole entry V96M): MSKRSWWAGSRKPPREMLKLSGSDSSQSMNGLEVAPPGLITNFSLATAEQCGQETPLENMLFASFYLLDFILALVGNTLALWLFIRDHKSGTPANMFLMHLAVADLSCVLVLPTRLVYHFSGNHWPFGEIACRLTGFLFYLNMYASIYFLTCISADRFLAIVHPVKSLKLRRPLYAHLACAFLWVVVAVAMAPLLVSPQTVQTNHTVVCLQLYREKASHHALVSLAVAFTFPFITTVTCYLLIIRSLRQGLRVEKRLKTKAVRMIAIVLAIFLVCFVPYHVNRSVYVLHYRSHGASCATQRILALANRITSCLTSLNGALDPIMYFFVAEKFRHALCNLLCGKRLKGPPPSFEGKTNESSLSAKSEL
Procedure: as §1

hGPR17L-D105N = biological target: T3, hGPR17L-D105N (Homo sapiens, UniProt Q13304, D105N); experiment: Calcium flux assay
T3 construct: expressed in transfected cells; host or cells: HEK293 (ATCC CRL-1573), transient transfection
T3 sequence (Q13304 whole entry D105N): as the sequence (Q13304 whole entry V96M) above, with M96V, D105N counted along it
Procedure: (§2) HEK293 cells were seeded at 20,000 cells/well into black, optical bottom, poly-D-lysine coated 96-well plates. The following day, cells were transiently transfected with pcDNA3-HA-hGPR17L or pcDNA3-HA-hGPR17L-variants using lipofectamine 3000. Twenty-four hours after transfection, the growth medium and transfection mix were decanted and 100 μl/well assay buffer (HBSS, 20 mM HEPES, pH 7.2) and 100 μl/well Calcium 6 loading dye (R8190; Molecular Devices) were added to the plate and incubated at 37 °C, 5% CO2 for 1 h 45 min. Plate was allowed to equilibrate to room temperature on the bench top for 30 min. MDL29,951 diluted in assay buffer was added to the wells and fluorescence (485 nm excitation, 525 nm emission, and 515 nm automatic emission cutoff) was measured using a Molecular Devices FlexStation3 (Molecular Devices). For experiments with pertussis toxin, cells were pretreated with 100 ng/ml pertussis toxin overnight and 100 ng/ml pertussis toxin was included with Calcium 6 loading dye for calcium flux assays.

hGPR17L-A131T = biological target: T4, hGPR17L-A131T (Homo sapiens, UniProt Q13304, A131T); experiment: Calcium flux assay
T4 construct: expressed in transfected cells; host or cells: HEK293 (ATCC CRL-1573), transient transfection
T4 sequence (Q13304 whole entry A131T): as the sequence (Q13304 whole entry V96M) above, with M96V, A131T counted along it
Procedure: as §2

hGPR17L-G136S = biological target: T5, hGPR17L-G136S (Homo sapiens, UniProt Q13304, G136S); experiment: Calcium flux assay; details: HEK293, read-out: calcium response, % of the maximum response observed for hGPR17L-WT
T5 construct: expressed in transfected cells; host or cells: HEK293 (ATCC CRL-1573), transient transfection
T5 sequence (Q13304 whole entry G136S): as the sequence (Q13304 whole entry V96M) above, with M96V, G136S counted along it
Procedure: as §2

hGPR17L-G354V [3] = biological target: T1, hGPR17L-G354V; experiment: Calcium flux assay
Procedure: as §2

hGPR17L-R301H = biological target: T6, hGPR17L-R301H (Homo sapiens, UniProt Q13304, R301H); experiment: Calcium flux assay
T6 construct: expressed in transfected cells; host or cells: HEK293 (ATCC CRL-1573)
T6 sequence (Q13304 whole entry R301H): as the sequence (Q13304 whole entry V96M) above, with M96V, R301H counted along it
Procedure: as §2

hGPR17L-R248Q = biological target: T7, hGPR17L-R248Q (Homo sapiens, UniProt Q13304, R248Q); experiment: Calcium flux assay
T7 construct: expressed in transfected cells; host or cells: HEK293 (ATCC CRL-1573), transient transfection
T7 sequence (Q13304 whole entry R248Q): as the sequence (Q13304 whole entry V96M) above, with M96V, R248Q counted along it
Procedure: as §2

hGPR17L-WT = biological target: T8, hGPR17L-WT (Homo sapiens, UniProt Q13304); experiment: Calcium flux assay
T8 construct: expressed in transfected cells; host or cells: HEK293 (ATCC CRL-1573), transient transfection of pcDNA3-HA-hGPR17L
T8 sequence (Q13304 whole entry): as the sequence (Q13304 whole entry V96M) above, with M96V counted along it
Procedure: as §2

hGPR17L-F43L = biological target: T9, hGPR17L-F43L (Homo sapiens, UniProt Q13304, F43L); experiment: Calcium flux assay
T9 construct: expressed in transfected cells; host or cells: HEK293 (ATCC CRL-1573), transient transfection
T9 sequence (Q13304 whole entry F43L): as the sequence (Q13304 whole entry V96M) above, with F43L, M96V counted along it
Procedure: as §2

hGPR17L-V103M = biological target: T10, hGPR17L-V103M (Homo sapiens, UniProt Q13304, V103M); experiment: Calcium flux assay
T10 construct: expressed in transfected cells; host or cells: HEK293 (ATCC CRL-1573), transient transfection
T10 sequence (Q13304 whole entry V103M): as the sequence (Q13304 whole entry V96M) above, with M96V, V103M counted along it
Procedure: as §2

hGPR17L-V96M [4] = biological target: T2, hGPR17L-V96M; experiment: Calcium flux assay
Procedure: as §2

hGPR17L-F43L-Tango = biological target: T11, hGPR17L-F43L-Tango (Homo sapiens, UniProt Q13304, F43L); experiment: Tango β-arrestin recruitment assay
T11 construct: Tango fusion module; host or cells: HTLA (HEK293T-derived)
T11 sequence (Q13304 whole entry F43L, the tested form may be a part): as the sequence (Q13304 whole entry V96M) above, with F43L, M96V counted along it
Procedure: HTLA cells were seeded at 10,000 cells/well into white, opaque, poly-D-lysine-coated 96-well plates and transfected with hGPR17L-WT-Tango or hGPR17L-variant-Tango plasmids the following day using lipofectamine 3000 according to the manufacturer's protocol. The next day, cells were incubated at 37 °C and 5% CO2 in serum-free growth media for a 4 h serum starvation. MDL29,951 was then diluted in assay buffer (HBSS, 20 mM HEPES, pH 7.2), added to the cells, and incubated for 16 h at 37 °C and 5% CO2. Drug treatment was decanted and 80 μl/well of Promega Bright-Glo reagent (diluted 20× in assay buffer) (E2610; Promega Corporation) was added and incubated at room temperature for 15 min. Luminescence (1 s per well integration time) was read on a Molecular Devices SpectraMax iD5 plate reader.

[5] = HEK293, inhibition of 3 μM forskolin-stimulated cAMP
[6] = read-out: cAMP IC50, HEK293, inhibition of 3 μM forskolin-stimulated cAMP
[7] = read-out: Ca2+ EC50, HEK293, calcium mobilization

T1 sequence (Q13304 whole entry G354V): as the sequence (Q13304 whole entry V96M) above, with M96V, G354V counted along it

## O=C(O)CCc1c(C(=O)O)[nH]c2cc(Cl)cc(Cl)c12 [MDL29,951]
hGPR17L-G354V [1]; HEK293, 3 μM forskolin
  cAMP Efficacy (% inhibition): 42 ± 6.7 % inhibition
hGPR17L-G354V [1]; HEK293, 10 μM MDL29,951
  cAMP 10 μM MDL +3 μM FSK (% of FSK): 91 ± 13 % of FSK
hGPR17L-G354V [1]; HEK293, 100 μM MDL29,951
  cAMP 100 μM MDL +3 μM FSK (% of FSK): 113 ± 10 % of FSK
hGPR17L-G354V [1]; [5]
  cAMP pIC50 ± SEM: 8.34 ± 0.25
hGPR17L-G354V [1]; [6]
  IC50: 4.6 nM
hGPR17L-V96M [2]; HEK293, 3 μM forskolin
  cAMP Efficacy (% inhibition): 36 ± 4.2 % inhibition
hGPR17L-V96M [2]; HEK293, 10 μM MDL29,951
  cAMP 10 μM MDL +3 μM FSK (% of FSK): 60 ± 5.6 % of FSK
hGPR17L-V96M [2]; HEK293, 100 μM MDL29,951
  cAMP 100 μM MDL +3 μM FSK (% of FSK): 65 ± 4.6 % of FSK
hGPR17L-V96M [2]; [5]
  cAMP pIC50 ± SEM: 8.77 ± 0.36
hGPR17L-V96M [2]; [6]
  IC50: 1.7 nM
hGPR17L-D105N
  calcium mobilization in the presence of pertussis toxin: reduced calcium mobilization
hGPR17L-D105N; hGPR17L-D105N
  fold less potent calcium response vs hGPR17L-WT: 6–7 fold
  reduction of efficacy of calcium response vs hGPR17L-WT: approximately 70%
hGPR17L-D105N; hGPR17L-D105N, HEK293
  Ca2+ Efficacy (% of WT Emax): 28 ± 4.5 % of WT Emax
hGPR17L-D105N; hGPR17L-D105N, HEK293, calcium mobilization
  Ca2+ pEC50 ± SEM: 6.21 ± 0.11
hGPR17L-D105N; read-out: Ca2+ EC50, hGPR17L-D105N, HEK293, calcium mobilization
  EC50: 620 nM
hGPR17L-A131T; HEK293
  Ca2+ Efficacy (% of WT Emax): 109 ± 8.9 % of WT Emax
hGPR17L-A131T; HEK293, calcium mobilization
  Ca2+ pEC50 ± SEM: 6.63 ± 0.08
hGPR17L-A131T; [7]
  EC50: 230 nM
hGPR17L-G136S
  Emax: 3.6 ± 1.3%
hGPR17L-G354V [3]; HEK293
  Ca2+ Efficacy (% of WT Emax): 92 ± 2.6 % of WT Emax
hGPR17L-G354V [3]; HEK293, calcium mobilization
  Ca2+ pEC50 ± SEM: 7.05 ± 0.29
hGPR17L-G354V [3]; [7]
  EC50: 89 nM
hGPR17L-R301H; HEK293
  Ca2+ Efficacy (% of WT Emax): 85 ± 3.6 % of WT Emax
hGPR17L-R301H; HEK293, calcium mobilization
  Ca2+ pEC50 ± SEM: 6.74 ± 0.14
hGPR17L-R301H; [7]
  EC50: 180 nM
hGPR17L-R248Q; HEK293
  Ca2+ Efficacy (% of WT Emax): 103 ± 25 % of WT Emax
hGPR17L-R248Q; HEK293, calcium mobilization
  Ca2+ pEC50 ± SEM: 6.92 ± 0.02
hGPR17L-R248Q; [7]
  EC50: 120 nM
hGPR17L-WT
  calcium flux efficacy with pertussis toxin (% of control pretreatment): 82 ± 1.4 % of control pretreatment
  calcium flux potency with pertussis toxin, fold shift in EC50: approximately 2.5 fold
hGPR17L-WT; hGPR17L-WT, HEK293
  Ca2+ Efficacy (% of WT Emax): 100 % of WT Emax
  maximum stimulation of calcium mobilization: 1.51 ± 0.14 Peak ΔF/F
hGPR17L-WT; hGPR17L-WT, HEK293, calcium mobilization
  Ca2+ pEC50 ± SEM: 7.09 ± 0.11
hGPR17L-WT; read-out: Ca2+ EC50, hGPR17L-WT, HEK293, calcium mobilization
  EC50: 82 nM
hGPR17L-F43L; HEK293
  Ca2+ Efficacy (% of WT Emax): 97 ± 3.9 % of WT Emax
hGPR17L-F43L; HEK293, calcium mobilization
  Ca2+ pEC50 ± SEM: 7.25 ± 0.19
hGPR17L-F43L; [7]
  EC50: 57 nM
hGPR17L-V103M; HEK293
  Ca2+ Efficacy (% of WT Emax): 119 ± 8.4 % of WT Emax
hGPR17L-V103M; HEK293, calcium mobilization
  Ca2+ pEC50 ± SEM: 6.66 ± 0.09
hGPR17L-V103M; [7]
  EC50: 220 nM
hGPR17L-V96M [4]
  calcium mobilization in the presence of pertussis toxin: reduced calcium mobilization
hGPR17L-V96M [4]; hGPR17L-V96M
  fold less potent calcium response vs hGPR17L-WT: 6–7 fold
  reduction of efficacy of calcium response vs hGPR17L-WT: approximately 70%
hGPR17L-V96M [4]; hGPR17L-V96M, HEK293
  Ca2+ Efficacy (% of WT Emax): 31 ± 4.7 % of WT Emax
hGPR17L-V96M [4]; hGPR17L-V96M, HEK293, calcium mobilization
  Ca2+ pEC50 ± SEM: 6.27 ± 0.05
hGPR17L-V96M [4]; read-out: Ca2+ EC50, hGPR17L-V96M, HEK293, calcium mobilization
  EC50: 540 nM
hGPR17L-F43L-Tango; HTLA cells
  β-arrestin recruitment Efficacy (% of WT span): 61 ± 13 % of WT span
  β-arrestin recruitment pEC50 ± SEM: 7.08 ± 0.03
hGPR17L-F43L-Tango; read-out: β-arrestin recruitment EC50, HTLA cells
  EC50: 83 nM

Source: publication PMC8267566, “Human GPR17 missense variants identified in metabolic disease patients have distinct downstream signaling profiles” (The Journal of Biological Chemistry, 2021)
